Values quoted from earlier work as cited in patent US10328118B2, “High purity oritavancin and method of producing same” (priority 2014, dated 2019).
Like-named read-outs stand apart in the source and are kept apart here.

| Molecule | teratogenicity (animal models; animal models) | “red man” syndrome (histamine-like response) during infusion (subjects; rapid infusion into subjects) | teratogenicity (animal models; in vivo) | “red man” syndrome (histamine-like response) during infusion (subjects; in vivo) |
| --- | --- | --- | --- | --- |
| CN[C@H](CC(C)C)C(=O)N[C@H]1C(=O)N[C@@H](CC(N)=O)C(=O)N[C@H]2C(=O)N[C@H]3C(=O)N[C@H](C(=O)N[C@H](C(=O)O)c4cc(O)cc(O)c4-c4cc3ccc4O)[C@H](O)c3ccc(c(Cl)c3)Oc3cc2cc(c3O[C@@H]2O[C@H](CO)[C@@H](O)[C@H](O)[C@H]2O[C@H]2C[C@](C)(N)[C@H](O)[C@H](C)O2)Oc2ccc(cc2Cl)[C@H]1O [vancomycin] | non-teratogenic | associated with the “red man” syndrome |  |  |
| teicoplanin |  |  | non-teratogenic | not seen |
